Experimental data from patent US7074789B2, “Kinase inhibitors” (Amgen Inc., priority 1999, dated 2006).
Read-outs that look alike come from different tables or passages of the source.

How the values were obtained:
Type in all cases: biochemical
Lck = target: T1, Lck (Homo sapiens, UniProt P06239); test: Kinase inhibition assay (33P transfer), Lck; settings: read-out: Lck-1
T1 construct: Kinases are expressed as either kinase domains or full length constructs; made in house
Summary of the method: (§1)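 Filterless plate radiometric format: immobilized poly(Glu,Tyr) 4:1 or poly(Arg,Ser) 3:1, 33P-labelled ATP, tagged recombinant kinase (some with regulatory partners). Incorporated label counted after phosphoric acid wash.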

Zap-70 = target: T2, Zap-70 (Homo sapiens, UniProt P43403); test: Kinase inhibition assay (33P transfer), Zap-70; settings: read-out: Zap-1
T2 construct: Kinases are expressed as either kinase domains or full length constructs; made in house
T2 sequence (P43403 1-619): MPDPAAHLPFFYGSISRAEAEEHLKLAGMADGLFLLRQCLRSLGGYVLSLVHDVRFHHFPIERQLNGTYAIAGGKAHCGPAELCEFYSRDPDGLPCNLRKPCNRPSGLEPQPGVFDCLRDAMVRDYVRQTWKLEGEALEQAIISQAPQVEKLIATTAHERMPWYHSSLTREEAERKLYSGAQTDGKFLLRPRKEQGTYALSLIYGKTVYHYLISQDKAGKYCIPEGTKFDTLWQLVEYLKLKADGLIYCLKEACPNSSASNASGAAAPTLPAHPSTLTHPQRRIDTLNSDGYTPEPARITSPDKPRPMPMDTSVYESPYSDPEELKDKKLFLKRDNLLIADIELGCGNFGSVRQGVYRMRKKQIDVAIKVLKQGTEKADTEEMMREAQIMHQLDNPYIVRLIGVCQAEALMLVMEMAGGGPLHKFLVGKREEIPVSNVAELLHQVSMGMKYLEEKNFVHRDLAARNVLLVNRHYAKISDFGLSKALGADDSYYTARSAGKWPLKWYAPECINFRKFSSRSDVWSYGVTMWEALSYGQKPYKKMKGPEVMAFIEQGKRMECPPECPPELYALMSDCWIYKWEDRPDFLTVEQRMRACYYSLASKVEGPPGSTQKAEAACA
Summary of the method: as §1

Itk = target: T3, Itk (Homo sapiens, UniProt Q08881); test: Kinase inhibition assay (33P transfer), Itk; settings: read-out: Itk-1
T3 construct: Kinases are expressed as either kinase domains or full length constructs; made in house
T3 sequence (Q08881 1-620): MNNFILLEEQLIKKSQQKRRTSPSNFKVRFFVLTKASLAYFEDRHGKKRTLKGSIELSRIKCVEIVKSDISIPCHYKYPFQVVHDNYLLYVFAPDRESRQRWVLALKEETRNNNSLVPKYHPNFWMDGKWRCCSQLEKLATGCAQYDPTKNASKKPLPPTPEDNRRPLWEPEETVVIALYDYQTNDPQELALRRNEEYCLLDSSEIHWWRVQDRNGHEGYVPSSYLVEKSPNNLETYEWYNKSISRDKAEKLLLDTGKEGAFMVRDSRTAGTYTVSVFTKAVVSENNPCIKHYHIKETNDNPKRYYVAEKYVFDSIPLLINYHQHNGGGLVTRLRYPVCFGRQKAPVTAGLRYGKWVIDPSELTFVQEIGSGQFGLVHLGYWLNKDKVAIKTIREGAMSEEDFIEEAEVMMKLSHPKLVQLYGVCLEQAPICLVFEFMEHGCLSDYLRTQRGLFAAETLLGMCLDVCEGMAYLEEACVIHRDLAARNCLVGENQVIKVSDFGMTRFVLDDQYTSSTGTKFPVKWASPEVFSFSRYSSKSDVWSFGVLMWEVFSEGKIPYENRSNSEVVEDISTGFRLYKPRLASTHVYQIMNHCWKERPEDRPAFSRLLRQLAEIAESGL
Summary of the method: (§2)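 Using immobilised substrate copolymers (poly(Glu,Tyr) 4:1; poly(Arg,Ser) 3:1) and [33P]ATP, purified fusion kinases were allowed to react; plates were then rinsed in 0.5% phosphoric acid and counted in a scintillation detector. Half-maximal inhibition of label transfer defines IC50.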

EGFR = target: T4, EGFR (Homo sapiens, UniProt P00533); test: Kinase inhibition assay (33P transfer), EGFR; settings: Table 2, kinase inhibition class; read-out: EGFR-1
T4 construct: Kinases are expressed as either kinase domains or full length constructs; made in house
T4 sequence (P00533 25-1210, species assumed): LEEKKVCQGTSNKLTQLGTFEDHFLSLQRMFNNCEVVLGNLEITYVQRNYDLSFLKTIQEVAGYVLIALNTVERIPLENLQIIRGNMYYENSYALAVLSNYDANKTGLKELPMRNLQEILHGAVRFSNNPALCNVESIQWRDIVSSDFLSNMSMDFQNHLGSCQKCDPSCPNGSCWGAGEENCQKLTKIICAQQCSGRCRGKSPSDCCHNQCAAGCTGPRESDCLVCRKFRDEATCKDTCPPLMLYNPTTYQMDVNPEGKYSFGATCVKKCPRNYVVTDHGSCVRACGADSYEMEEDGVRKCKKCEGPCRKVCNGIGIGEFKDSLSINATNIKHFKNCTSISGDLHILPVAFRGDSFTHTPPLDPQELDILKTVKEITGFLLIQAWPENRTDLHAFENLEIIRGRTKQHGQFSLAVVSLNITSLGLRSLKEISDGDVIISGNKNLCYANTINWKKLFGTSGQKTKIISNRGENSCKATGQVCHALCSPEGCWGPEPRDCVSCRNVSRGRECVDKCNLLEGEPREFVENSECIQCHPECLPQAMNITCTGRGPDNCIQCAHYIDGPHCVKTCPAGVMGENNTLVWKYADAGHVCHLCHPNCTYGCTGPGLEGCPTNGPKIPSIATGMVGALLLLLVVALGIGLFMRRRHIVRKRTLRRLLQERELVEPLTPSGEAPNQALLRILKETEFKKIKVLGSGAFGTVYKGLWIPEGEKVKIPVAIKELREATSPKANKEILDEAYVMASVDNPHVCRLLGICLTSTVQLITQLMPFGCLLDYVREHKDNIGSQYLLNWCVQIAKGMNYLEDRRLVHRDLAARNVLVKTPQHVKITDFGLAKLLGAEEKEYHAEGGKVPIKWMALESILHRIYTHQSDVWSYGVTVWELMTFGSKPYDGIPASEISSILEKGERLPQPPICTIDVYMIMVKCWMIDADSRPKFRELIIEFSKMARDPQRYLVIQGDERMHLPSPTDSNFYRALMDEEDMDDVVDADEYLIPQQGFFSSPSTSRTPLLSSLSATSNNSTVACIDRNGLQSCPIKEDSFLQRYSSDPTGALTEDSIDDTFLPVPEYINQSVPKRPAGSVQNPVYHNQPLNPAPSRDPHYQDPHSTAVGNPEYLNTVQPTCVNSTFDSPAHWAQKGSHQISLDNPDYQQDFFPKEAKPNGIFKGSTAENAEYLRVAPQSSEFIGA
Summary of the method: as §2

Kdr = target: T5, Kdr (Homo sapiens, UniProt P35968); test: Kinase inhibition assay (33P transfer), Kdr; settings: read-out: KDR-1
T5 construct: Kinases are expressed as either kinase domains or full length constructs; made in house
T5 sequence (P35968 20-1356, species assumed): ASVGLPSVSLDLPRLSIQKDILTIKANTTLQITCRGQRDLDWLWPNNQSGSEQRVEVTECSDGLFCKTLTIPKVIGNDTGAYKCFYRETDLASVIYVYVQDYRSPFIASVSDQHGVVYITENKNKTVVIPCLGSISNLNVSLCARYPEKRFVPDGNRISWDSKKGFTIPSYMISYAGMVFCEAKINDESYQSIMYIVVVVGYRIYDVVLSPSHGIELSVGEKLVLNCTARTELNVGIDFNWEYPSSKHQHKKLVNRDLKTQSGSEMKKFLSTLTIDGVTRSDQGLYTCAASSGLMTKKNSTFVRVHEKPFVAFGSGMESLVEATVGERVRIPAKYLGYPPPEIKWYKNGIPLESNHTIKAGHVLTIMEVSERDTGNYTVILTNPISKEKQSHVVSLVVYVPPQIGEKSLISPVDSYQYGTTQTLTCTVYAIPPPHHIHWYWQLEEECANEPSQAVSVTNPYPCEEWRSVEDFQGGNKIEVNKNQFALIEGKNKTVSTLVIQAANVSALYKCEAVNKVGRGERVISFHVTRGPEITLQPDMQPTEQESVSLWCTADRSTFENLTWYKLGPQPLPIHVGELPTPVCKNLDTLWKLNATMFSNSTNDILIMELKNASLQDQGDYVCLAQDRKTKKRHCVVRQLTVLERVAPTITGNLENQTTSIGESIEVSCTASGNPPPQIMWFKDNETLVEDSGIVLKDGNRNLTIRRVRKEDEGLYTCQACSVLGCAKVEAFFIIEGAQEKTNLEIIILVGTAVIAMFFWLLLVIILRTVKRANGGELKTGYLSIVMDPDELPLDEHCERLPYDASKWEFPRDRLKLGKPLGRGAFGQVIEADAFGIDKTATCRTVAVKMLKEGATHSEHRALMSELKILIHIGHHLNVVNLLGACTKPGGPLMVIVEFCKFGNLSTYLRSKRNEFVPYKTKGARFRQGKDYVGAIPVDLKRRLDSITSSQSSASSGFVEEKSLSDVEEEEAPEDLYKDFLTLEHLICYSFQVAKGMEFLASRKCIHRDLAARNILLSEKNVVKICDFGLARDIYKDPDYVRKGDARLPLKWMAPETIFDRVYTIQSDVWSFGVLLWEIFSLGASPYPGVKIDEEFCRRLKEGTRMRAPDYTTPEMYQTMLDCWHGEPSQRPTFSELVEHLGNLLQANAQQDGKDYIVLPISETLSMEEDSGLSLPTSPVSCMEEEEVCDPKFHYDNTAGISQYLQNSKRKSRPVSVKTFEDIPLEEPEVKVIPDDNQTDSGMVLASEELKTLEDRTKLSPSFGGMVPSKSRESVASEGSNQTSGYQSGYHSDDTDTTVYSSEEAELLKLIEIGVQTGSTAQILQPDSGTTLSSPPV
Summary of the method: as §1

c-Met = target: T6, c-Met (Homo sapiens, UniProt P08581); test: Kinase inhibition assay (33P transfer), c-Met; settings: Table 2, kinase inhibition class; read-out: Met-1
T6 construct: Kinases are expressed as either kinase domains or full length constructs; made in house
T6 sequence (P08581 25-1390): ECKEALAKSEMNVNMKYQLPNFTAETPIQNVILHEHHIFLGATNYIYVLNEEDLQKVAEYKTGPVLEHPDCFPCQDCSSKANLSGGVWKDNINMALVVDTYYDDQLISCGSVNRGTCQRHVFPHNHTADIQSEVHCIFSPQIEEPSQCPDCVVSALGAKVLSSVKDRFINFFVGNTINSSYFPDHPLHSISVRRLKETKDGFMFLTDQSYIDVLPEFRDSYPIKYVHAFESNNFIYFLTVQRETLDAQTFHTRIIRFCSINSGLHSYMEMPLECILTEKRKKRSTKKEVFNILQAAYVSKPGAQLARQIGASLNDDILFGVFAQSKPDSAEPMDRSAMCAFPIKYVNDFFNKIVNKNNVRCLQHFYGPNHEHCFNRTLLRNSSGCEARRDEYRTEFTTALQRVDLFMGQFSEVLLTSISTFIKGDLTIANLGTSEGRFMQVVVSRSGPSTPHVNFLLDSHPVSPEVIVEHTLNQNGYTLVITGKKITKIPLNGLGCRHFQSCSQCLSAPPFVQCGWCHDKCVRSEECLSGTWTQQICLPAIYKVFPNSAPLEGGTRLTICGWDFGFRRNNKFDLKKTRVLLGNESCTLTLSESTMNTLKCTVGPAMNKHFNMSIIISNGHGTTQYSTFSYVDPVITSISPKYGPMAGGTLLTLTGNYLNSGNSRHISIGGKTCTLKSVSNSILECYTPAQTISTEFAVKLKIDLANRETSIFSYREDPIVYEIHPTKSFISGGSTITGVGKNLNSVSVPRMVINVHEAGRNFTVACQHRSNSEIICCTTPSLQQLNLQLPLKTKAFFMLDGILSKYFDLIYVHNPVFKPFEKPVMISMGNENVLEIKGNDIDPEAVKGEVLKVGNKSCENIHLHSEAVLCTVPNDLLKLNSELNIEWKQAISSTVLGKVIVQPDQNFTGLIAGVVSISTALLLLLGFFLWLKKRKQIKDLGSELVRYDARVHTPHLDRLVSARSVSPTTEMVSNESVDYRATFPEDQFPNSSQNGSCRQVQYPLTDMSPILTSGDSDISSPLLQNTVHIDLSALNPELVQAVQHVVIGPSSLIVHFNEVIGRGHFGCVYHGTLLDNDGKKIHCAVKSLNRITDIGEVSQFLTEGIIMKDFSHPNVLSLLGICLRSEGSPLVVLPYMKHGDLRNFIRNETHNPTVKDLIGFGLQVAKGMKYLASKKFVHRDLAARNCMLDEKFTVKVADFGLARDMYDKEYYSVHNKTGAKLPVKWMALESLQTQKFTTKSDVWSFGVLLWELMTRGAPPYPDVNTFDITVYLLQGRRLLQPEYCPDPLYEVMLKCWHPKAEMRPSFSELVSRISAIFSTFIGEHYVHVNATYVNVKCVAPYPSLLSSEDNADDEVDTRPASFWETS
Summary of the method: as §2

AKT = target: T7, AKT (Homo sapiens, UniProt Q9Y243); test: Kinase inhibition assay (33P transfer), AKT; settings: Table 2, kinase inhibition class; read-out: AKT3-1
T7 construct: Kinases are expressed as either kinase domains or full length constructs; made in house
T7 sequence (Q9Y243 whole entry, the tested form may be a part): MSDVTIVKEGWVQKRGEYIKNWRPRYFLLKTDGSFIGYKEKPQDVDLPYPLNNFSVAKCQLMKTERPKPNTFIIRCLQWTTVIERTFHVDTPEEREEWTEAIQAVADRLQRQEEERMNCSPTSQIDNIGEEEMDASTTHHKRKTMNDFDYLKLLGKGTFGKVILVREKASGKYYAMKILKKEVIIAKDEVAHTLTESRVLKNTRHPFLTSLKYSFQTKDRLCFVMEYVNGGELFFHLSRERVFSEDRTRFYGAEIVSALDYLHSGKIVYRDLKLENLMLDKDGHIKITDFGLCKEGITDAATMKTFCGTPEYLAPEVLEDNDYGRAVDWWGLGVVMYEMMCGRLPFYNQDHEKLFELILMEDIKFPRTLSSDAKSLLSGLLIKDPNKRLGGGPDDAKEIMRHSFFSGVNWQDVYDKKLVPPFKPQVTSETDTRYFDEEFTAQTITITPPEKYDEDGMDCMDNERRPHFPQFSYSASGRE
Summary of the method: as §1

IGFR-1 [1] = target: T8, IGFR-1 (Homo sapiens, UniProt P08069); test: Kinase inhibition assay (33P transfer), IGFR-1; settings: Table 2, kinase inhibition class
T8 construct: Kinases are expressed as either kinase domains or full length constructs; made in house

EPHB4 = target: T9, EPHB4 (Homo sapiens, UniProt P54760); test: Kinase inhibition assay (33P transfer), EPHB4; settings: read-out: EPHB4-1
T9 construct: Kinases are expressed as either kinase domains or full length constructs; made in house
T9 sequence (P54760 16-987): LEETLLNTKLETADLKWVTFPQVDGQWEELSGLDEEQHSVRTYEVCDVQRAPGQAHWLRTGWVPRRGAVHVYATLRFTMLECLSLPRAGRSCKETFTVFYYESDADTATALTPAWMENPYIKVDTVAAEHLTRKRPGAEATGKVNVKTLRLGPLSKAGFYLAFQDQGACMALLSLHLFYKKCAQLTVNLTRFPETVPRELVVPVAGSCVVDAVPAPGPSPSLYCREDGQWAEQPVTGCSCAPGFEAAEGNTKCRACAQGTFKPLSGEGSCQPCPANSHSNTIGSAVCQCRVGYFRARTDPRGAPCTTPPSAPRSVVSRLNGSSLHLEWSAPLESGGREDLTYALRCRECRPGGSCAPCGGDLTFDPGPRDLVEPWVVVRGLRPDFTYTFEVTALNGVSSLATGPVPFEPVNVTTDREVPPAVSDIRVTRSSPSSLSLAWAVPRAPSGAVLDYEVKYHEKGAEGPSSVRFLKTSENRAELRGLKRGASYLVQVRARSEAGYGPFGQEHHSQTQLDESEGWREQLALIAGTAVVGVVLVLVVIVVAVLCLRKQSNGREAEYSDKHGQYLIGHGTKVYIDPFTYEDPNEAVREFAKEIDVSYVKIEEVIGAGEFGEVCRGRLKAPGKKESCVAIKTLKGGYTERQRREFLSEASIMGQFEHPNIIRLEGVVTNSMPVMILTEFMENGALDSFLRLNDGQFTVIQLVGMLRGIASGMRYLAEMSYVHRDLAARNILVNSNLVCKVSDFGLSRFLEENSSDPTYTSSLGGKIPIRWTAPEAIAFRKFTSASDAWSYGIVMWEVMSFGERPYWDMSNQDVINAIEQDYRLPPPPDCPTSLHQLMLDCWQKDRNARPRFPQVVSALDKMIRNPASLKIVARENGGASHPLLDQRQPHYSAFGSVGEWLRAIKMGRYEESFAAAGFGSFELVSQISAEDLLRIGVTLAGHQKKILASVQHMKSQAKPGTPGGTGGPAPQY

Lyn = target: T10, Lyn (Homo sapiens, UniProt P07948); test: Kinase inhibition assay (33P transfer), Lyn; settings: Table 6, Lyn-1 kinase inhibition class
T10 construct: Kinases are expressed as either kinase domains or full length constructs; made in house
Summary of the method: as §2

Src = target: T11, Src (Homo sapiens, UniProt P12931); test: Kinase inhibition assay (33P transfer), Src; settings: Table 6, Src-1 kinase inhibition class
T11 construct: Kinases are expressed as either kinase domains or full length constructs; made in house
Summary of the method: as §2

Fyn = target: T12, Fyn (Homo sapiens, UniProt P06241); test: Kinase inhibition assay (33P transfer), Fyn; settings: read-out: Fyn-1
T12 construct: Kinases are expressed as either kinase domains or full length constructs; made in house
Summary of the method: as §2

ErbB2 = target: T13, ErbB2 (Homo sapiens, UniProt P04626); test: Kinase inhibition assay (33P transfer), ErbB2; settings: read-out: ErbB2-2
T13 construct: Kinases are expressed as either kinase domains or full length constructs; made in house
Summary of the method: as §2

Flt-1 = target: T14, Flt-1 (Homo sapiens, UniProt P17948); test: Kinase inhibition assay (33P transfer), Flt-1
T14 construct: Kinases are expressed as either kinase domains or full length constructs; made in house
Summary of the method: as §2

Tek = target: T15, Tek (Homo sapiens, UniProt Q02763); test: Kinase inhibition assay (33P transfer), Tek; settings: read-out: Tek-1
T15 construct: Kinases are expressed as either kinase domains or full length constructs; made in house
Summary of the method: as §2

PDGFRB [2] = target: T16, PDGFRB (Homo sapiens, UniProt P09619); test: Kinase inhibition assay (33P transfer), PDGFRB; settings: read-out: PDGFRB-1
T16 construct: Kinases are expressed as either kinase domains or full length constructs; made in house

Hck-1 = target: T17, Hck-1 (Homo sapiens, UniProt P08631); test: Kinase inhibition assay (33P transfer), Hck; settings: Table 6, Hck-1 kinase inhibition class
T17 construct: Kinases are expressed as either kinase domains or full length constructs; made in house

ErbB4 = target: T18, ErbB4 (Homo sapiens, UniProt Q15303); test: Kinase inhibition assay (33P transfer), ErbB4; settings: read-out: ErbB4-1
T18 construct: Kinases are expressed as either kinase domains or full length constructs; made in house

FGFR1 = target: T19, FGFR1 (Homo sapiens, UniProt P11362); test: Kinase inhibition assay (33P transfer), FGFR1; settings: read-out: FGFR1-1
T19 construct: Kinases are expressed as either kinase domains or full length constructs; made in house

IGFR-1 [3] = target: T8, IGFR-1; test: Kinase inhibition assay, IGFR-1 (Table 2); settings: Table 2, kinase inhibition class
PDGFRB [4] = target: T16, PDGFRB; test: Kinase inhibition assay (33P transfer), PDGFRB; settings: read-out: PDGFRB-1; remark: listed apart in the source

T1 sequence (P06239 whole entry, species assumed, the tested form may be a part): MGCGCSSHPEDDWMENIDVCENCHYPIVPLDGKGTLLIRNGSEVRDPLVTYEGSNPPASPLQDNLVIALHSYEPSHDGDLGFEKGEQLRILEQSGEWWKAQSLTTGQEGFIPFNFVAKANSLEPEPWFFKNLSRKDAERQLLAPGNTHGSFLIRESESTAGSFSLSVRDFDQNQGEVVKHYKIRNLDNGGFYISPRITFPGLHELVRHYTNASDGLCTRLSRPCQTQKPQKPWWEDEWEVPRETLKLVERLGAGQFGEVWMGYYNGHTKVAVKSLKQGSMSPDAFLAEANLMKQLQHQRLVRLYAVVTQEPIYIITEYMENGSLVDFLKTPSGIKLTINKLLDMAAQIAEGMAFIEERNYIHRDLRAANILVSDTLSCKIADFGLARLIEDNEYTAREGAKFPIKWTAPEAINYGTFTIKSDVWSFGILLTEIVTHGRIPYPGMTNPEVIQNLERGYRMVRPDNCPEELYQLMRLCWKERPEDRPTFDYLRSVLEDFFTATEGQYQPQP

Row | IC50 (Lck; Table 3) [µM] | IC50 (Zap-70; Table 3) [µM] | IC50 (Itk; Table 3) [µM] | IC50 (EGFR) [µM] | IC50 (Kdr; Table 3) [µM] | IC50 (c-Met) [µM] | IC50 (AKT) [µM] | IC50 (IGFR-1 [1]) [µM] | IC50 (Lyn) [µM] | IC50 (Src) [µM] | IC50 (Fyn) [µM] | IC50 (ErbB2) [µM] | IC50 (Flt-1) [µM] | IC50 (Tek) [µM] | IC50 (PDGFRB [2]) [µM] | IC50 (Hck-1) [µM] | IC50 (ErbB4) [µM] | IC50 (FGFR1) [µM] | SMILES | also measured
1 | > 9.79 | > 9.79 | > 9.79 | > 9.79 | > 9.79 | > 9.79 | > 9.79 | > 9.79 |  |  |  |  |  |  |  |  |  |  | COc1cc(Nc2ncnc(Nc3cccc(OCc4ccccc4)c3)n2)cc(OC)c1OC [Compound 73] | IC50 (EPHB4): > 9.79 µM
2 | < 1.02 | > 11.4 | > 11.4 | < 1.02 | 6.1 to 8.9 | > 11.4 | > 11.4 | 1.02 to 6.1 | < 1.02 | 1.02 to 6.1 | 1.02 to 6.1 | 1.02 to 6.1 | > 11.4 | > 11.4 | 1.02 to 6.1 | > 11.4 | 1.02 to 6.1 | 6.1 to 8.9 | COc1cc(Nc2ncnc(NC3CC3c3ccccc3)n2)cc(OC)c1OC (stereo not drawn) [Compound 428] | 
3 | > 9.29 | > 9.29 | > 9.29 | > 9.29 | < 0.826 | > 9.29 | > 9.29 | > 9.29 | > 9.29 | > 9.29 | 0.826 to 4.95 | > 9.29 | < 0.826 | > 9.29 | < 0.826 | > 9.29 | > 9.29 | < 0.826 | COc1cc(Nc2ncnc(-n3c(NCc4ccccn4)nc4ccccc43)n2)cc(OC)c1OC [Compound 414] | IC50 (Lck): 0.826 to 4.95 µM; IC50 (Zap-70): > 9.29 µM; IC50 (Itk): > 9.29 µM; IC50 (Kdr): < 0.826 µM; IC50 (IGFR-1 [3]): 7.22 to 9.29 µM; IC50 (PDGFRB [4]): < 0.826 µM
